This passage reports IC50 results from patent publication US11464770B2, “Anticancer pharmaceutical composition” (NATIONAL CANCER CENTER, priority 2016, dated 2022).

pIC50: −log10 of the molar value. Like-named read-outs stand apart in the source and are kept apart here.

The assay relates to breast cancer cell lines (e.g. MDA-MB-231, SK-BR-3, MDA-MB-468, HCC1954). Kind of assay: Cell based assay, cell viability (CellTiter-Glo), breast cancer cell lines. Put shortly:
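72-hour continuous compound exposure, 0 to 2 μM final, begun one day after seeding; endpoint is ATP-based luminescent viability.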

Where [1] appears, read: Breast cancer cell line MDA-MB-231-L/DOX, 72 hours, CellTiter-Glo, read-out: IC50, MDA-MB-231-L/DOX.
[2] abbreviates: Homo sapiens, Breast cancer cell line BT-20, 72 hours, CellTiter-Glo, read-out: IC50, BT-20.
Setting [3] is: Homo sapiens, Breast cancer cell line HCC1395, 72 hours, CellTiter-Glo, read-out: IC50, HCC1395.
Where [4] appears, read: Homo sapiens, Breast cancer cell line HCC1954, 72 hours, CellTiter-Glo, read-out: IC50, HCC1954.
Setting [5] is: Homo sapiens, Breast cancer cell line JIMT-1, 72 hours, CellTiter-Glo, read-out: IC50, JIMT-1.
The mark [6] stands for this setting: Homo sapiens, Breast cancer cell line MCF7, 72 hours, CellTiter-Glo, read-out: IC50, MCF7.
Where [7] appears, read: Homo sapiens, Breast cancer cell line MDA-MB-231, 72 hours, CellTiter-Glo, read-out: IC50, MDA-MB-231.
The mark [8] stands for this setting: Homo sapiens, Breast cancer cell line MDA-MB-468, 72 hours, CellTiter-Glo, read-out: IC50, MDA-MB-468.
Where [9] appears, read: Homo sapiens, Breast cancer cell line SK-BR-3, 72 hours, CellTiter-Glo, read-out: IC50, SK-BR-3.
Setting [10] is: Homo sapiens, BT-20 cells, 72 hours treatment, CellTiter-Glo cell viability, read-out: IC50, Breast cancer cell line BT-20.
The mark [11] stands for this setting: Homo sapiens, HCC1395 cells, 72 hours treatment, CellTiter-Glo cell viability, read-out: IC50, Breast cancer cell line HCC1395.
[12] abbreviates: Homo sapiens, HCC1954 cells, 72 hours treatment, CellTiter-Glo cell viability, read-out: IC50, Breast cancer cell line HCC1954.
Where [13] appears, read: Homo sapiens, JIMT-1 cells, 72 hours treatment, CellTiter-Glo cell viability, read-out: IC50, Breast cancer cell line JIMT-1.
Setting [14] is: Homo sapiens, MCF7 cells, 72 hours treatment, CellTiter-Glo cell viability, read-out: IC50, Breast cancer cell line MCF7.
The mark [15] stands for this setting: Homo sapiens, MDA-MB-231 cells, 72 hours treatment, CellTiter-Glo cell viability, read-out: IC50, Breast cancer cell line MDA-MB-231.
[16] abbreviates: Homo sapiens, MDA-MB-468 cells, 72 hours treatment, CellTiter-Glo cell viability, read-out: IC50, Breast cancer cell line MDA-MB-468.
Where [17] appears, read: Homo sapiens, SK-BR-3 cells, 72 hours treatment, CellTiter-Glo cell viability, read-out: IC50, Breast cancer cell line SK-BR-3.
[18] abbreviates: MDA-MB-231-L/DOX cells, 72 hours treatment, CellTiter-Glo cell viability, read-out: IC50, Breast cancer cell line MDA-MB-231-L/DOX.

As to `CC(=O)c1c(S/C=C\C(=O)O)[nH]c2c(Br)ccc(Cl)c2c1=O` [Compound 67, (Z)-3-((3-acetyl-8-bromo-5-chloro-4-oxo-1,4-dihydroquinolin-2-yl)thio)acrylic acid], the pIC50 is, setting by setting: under setting [1], less than 5.70; under setting [2], less than 5.70; under setting [3], less than 5.00; under setting [4], less than 5.70; under setting [5], less than 5.00; under setting [6], less than 5.70. The pIC50 was less than 5.70 under setting [7], less than 5.70 under setting [8] and less than 5.70 under setting [9].

In the case of `CC(=O)c1c([S+]([O-])Cc2ccc(S(F)(F)(F)(F)F)cc2)[nH]c2c(Br)ccc(Cl)c2c1=O` (stereo not drawn) [Compound 68, 3-acetyl-8-bromo-5-chloro-2-((4-(pentafluoro-16-sulfanyl)benzyl)sulfinyl)quinolin-4(1H)-one], the pIC50 runs as follows: under setting [1], less than 5.70; under setting [2], less than 5.70; under setting [3], less than 5.00; under setting [4], less than 5.70; under setting [5], less than 5.00; under setting [6], less than 5.70. In addition, the pIC50 by setting is: under setting [7], 5.91; under setting [8], less than 5.70; under setting [9], 5.91.

Regarding `CC(=O)c1c([S+]([O-])Cc2ccc(S(F)(F)(F)(F)F)cc2F)[nH]c2c(Br)ccc(Cl)c2c1=O` (stereo not drawn) [Compound 69, 3-acetyl-8-bromo-5-chloro-2-((2-fluoro-4-(pentafluoro-16-sulfanyl)benzyl)sulfinyl)quinolin-4(1H)-one], the pIC50 is less than 5.70 under setting [1]; less than 5.70 under setting [2]; less than 5.00 under setting [3]; less than 5.70 under setting [4]; less than 5.00 under setting [5]; less than 5.70 under setting [6]. Also, the pIC50 is 5.86 under setting [7], less than 5.70 under setting [8] and 5.84 under setting [9].

For the compound `CC(=O)c1c([S+]([O-])Cc2cccc(S(F)(F)(F)(F)F)c2)[nH]c2c(Br)ccc(Cl)c2c1=O` (stereo not drawn) [Compound 77, 3-acetyl-8-bromo-5-chloro-2-((3-(pentafluoro--sulfanyl)benzyl)sulfinyl)quinolin-4(1H)-one], the pIC50 under setting [1] was less than 5.70; the pIC50 under setting [2] is less than 5.70; the pIC50 under setting [3] is less than 5.00; the pIC50 under setting [4] was less than 5.70; the pIC50 under setting [5] was less than 5.00; the pIC50 under setting [6] was less than 5.70. Besides, the pIC50 is less than 5.70 under setting [7], less than 5.70 under setting [8] and 5.84 under setting [9].

Turning to `CC(=O)c1c([S+]([O-])Cc2ccc(SC(F)(F)F)cc2)[nH]c2c(Cl)ccc(Cl)c2c1=O` (stereo not drawn) [Compound 79, 3-acetyl-5,8-dichloro-2-((4-((trifluoromethyl)thio)benzyl)sulfinyl)quinolin-4(1H)-one], the pIC50 is less than 5.70 under setting [1]; less than 5.70 under setting [2]; less than 5.00 under setting [3]; less than 5.70 under setting [4]; less than 5.00 under setting [5]; less than 5.70 under setting [6]. Besides, the pIC50 under setting [7] was less than 5.70, the pIC50 under setting [8] was less than 5.70 and the pIC50 under setting [9] is less than 5.70.

For the compound `CC(=O)c1c([S+]([O-])Cc2ccc(S(F)(F)(F)(F)F)cc2)[nH]c2c(F)ccc(F)c2c1=O` (stereo not drawn) [Compound 80, 3-acetyl-5,8-difluoro-2-((4-(pentafluoro--sulfanyl)benzyl)sulfinyl)quinolin-4(1H)-one], the pIC50 runs as follows: under setting [1], less than 5.70; under setting [2], less than 5.70; under setting [3], less than 5.00; under setting [4], less than 5.70; under setting [5], less than 5.00; under setting [6], less than 5.70. Moreover, the pIC50 is, setting by setting: under setting [7], less than 5.70; under setting [8], less than 5.70; under setting [9], less than 5.70.

On to `CC(=O)c1c([S+]([O-])Cc2ccc(C(F)(F)F)o2)[nH]c2c(F)ccc(F)c2c1=O` (stereo not drawn) [Compound 81, 3-acetyl-5,8-difluoro-2-(((5-(trifluoromethyl)furan-2-yl)methyl)sulfinyl)quinolin-4(1H)-one], for which the pIC50 was less than 5.70 under setting [1]; less than 5.70 under setting [2]; less than 5.00 under setting [3]; less than 5.70 under setting [4]; less than 5.00 under setting [5]; less than 5.70 under setting [6]. The pIC50 runs as follows: under setting [7], less than 5.70; under setting [8], less than 5.70; under setting [9], less than 5.70.

For the compound `CC(=O)c1c([S+]([O-])Cc2cc(C)on2)[nH]c2c(F)ccc(F)c2c1=O` (stereo not drawn) [Compound 82, 3-acetyl-5,8-difluoro-2-(((5-methylisoxazol-3-yl)methyl)sulfinyl)quinolin-4(1H)-one], the pIC50 is less than 5.70 under setting [10]; less than 5.00 under setting [11]; less than 5.70 under setting [12]; less than 5.00 under setting [13]; less than 5.70 under setting [14]; less than 5.70 under setting [15]. Moreover, the pIC50 by setting is: under setting [16], less than 5.70; under setting [17], 5.75; under setting [18], less than 5.70.

Turning to `CC(C)C(=O)c1c([S+]([O-])Cc2ccc(SC(F)(F)F)cc2)[nH]c2c(F)ccc(F)c2c1=O` (stereo not drawn) [Compound 85, 5,8-difluoro-3-isobutyryl-2-((4-((trifluoromethyl)thio)benzyl)sulfinyl)quinolin-4(1H)-one], the pIC50 was less than 5.70 under setting [10]; less than 5.00 under setting [11]; less than 5.70 under setting [12]; less than 5.00 under setting [13]; less than 5.70 under setting [14]; less than 5.70 under setting [15]. Also, the pIC50 runs as follows: under setting [16], less than 5.70; under setting [17], less than 5.70; under setting [18], less than 5.70.

Turning to `O=C(c1ccccc1)c1c([S+]([O-])Cc2ccc(S(F)(F)(F)(F)F)cc2)[nH]c2c(F)ccc(F)c2c1=O` (stereo not drawn) [Compound 87, 3-benzoyl-5,8-difluoro-2-((4-(pentafluoro--sulfanyl)benzyl)sulfinyl)quinolin-4(1H)-one], the pIC50 runs as follows: under setting [10], less than 5.70; under setting [11], less than 5.00; under setting [12], less than 5.70; under setting [13], less than 5.00; under setting [14], less than 5.70; under setting [15], less than 5.70. Besides, the pIC50 is, setting by setting: under setting [16], less than 5.70; under setting [17], less than 5.70; under setting [18], less than 5.70.

In the case of `Cc1cc(C[S+]([O-])c2[nH]c3c(Cl)ccc(Cl)c3c(=O)c2C(=O)c2ccccc2)no1` (stereo not drawn) [Compound 88, 3-benzoyl-5,8-dichloro-2-(((5-methylisoxazol-3-yl)methyl)sulfinyl)quinolin-4(1H)-one], the pIC50 is, setting by setting: under setting [10], less than 5.70; under setting [11], less than 5.00; under setting [12], less than 5.70; under setting [13], less than 5.00; under setting [14], less than 5.70; under setting [15], less than 5.70. Further, the pIC50 is less than 5.70 under setting [16], less than 5.70 under setting [17] and less than 5.70 under setting [18].

As for `CC(=O)c1c([S+]([O-])CN2C(=O)c3ccccc3C2=O)[nH]c2c(Cl)ccc(Cl)c2c1=O` (stereo not drawn) [Compound 90, 2-(((3-acetyl-5,8-dichloro-4-oxo-1,4-dihydroquinolin-2-yl)sulfinyl)methyl)isoindoline-1,3-dione], the pIC50 was less than 5.70 under setting [10]; less than 5.00 under setting [11]; less than 5.70 under setting [12]; less than 5.00 under setting [13]; less than 5.70 under setting [14]; less than 5.70 under setting [15]. Further, the pIC50 is less than 5.70 under setting [16], less than 5.70 under setting [17] and less than 5.70 under setting [18].

With `COC(=O)c1ccc(C[S+]([O-])c2[nH]c3c(Cl)ccc(Cl)c3c(=O)c2C(C)=O)cc1` (stereo not drawn) [Compound 91, methyl 4-(((3-acetyl-5,8-dichloro-4-oxo-1,4-dihydroquinolin-2-yl)sulfinyl)methyl)benzoate], the pIC50 runs as follows: under setting [10], less than 5.70; under setting [11], less than 5.00; under setting [12], 5.74; under setting [13], less than 5.00; under setting [14], less than 5.70; under setting [15], less than 5.70. Besides, the pIC50 under setting [16] was 5.88, the pIC50 under setting [17] was 5.88 and the pIC50 under setting [18] was less than 5.70.

As to `COc1cccc2[nH]c(SCc3ccc(S(F)(F)(F)(F)F)cc3)c(C(C)=O)c(=O)c12` [Compound 92, 3-acetyl-5-methoxy-2-((4-(pentafluoro--sulfanyl)benzyl)thio)quinolin-4(1H)-one], the pIC50 is less than 5.70 under setting [10]; less than 5.00 under setting [11]; less than 5.70 under setting [12]; less than 5.00 under setting [13]; less than 5.70 under setting [14]; less than 5.70 under setting [15]. The pIC50 was less than 5.70 under setting [16], less than 5.70 under setting [17] and less than 5.70 under setting [18].
